Patent US9018195B2, “Use of 2,5-dihydroxybenzene sulfonic acid compounds for treating skin photoaging” (AmDerma Pharmaceuticals, LLC, priority 2004, dated 2015)

What was measured:
[1] = test system: cell line of preadipocytes 3T3L1; assay: Adipogenesis assay in preadipocytes, Oil Red O staining; assay type: cell-based
Method: The preadipocytes were seeded in a 6 well plate where they grew up to the confluence In a standard culture medium [Dulbecco's Essential Medium (DEM)], supplemented with 1.5 g/L of sodium bicarbonate, non essential aminoacids and 10% bovine fetal serum. […] The culture medium was renewed every two days. After seven days, the differentiation to adipocytes was initiated in the six wells by the addition of dexametasone ([…]), 3-isobutyl-1-methylxanthine (0.5 mM) and insuline (160 nM) during two days, followed by the substitution of the culture medium by another culture medium containing insuline (160 nM) during five days. […] The culture medium was renewed every two days.
12 days later, the adipogenesis was determined by staining with Oil Red O to check the cytoplasmic accumulation of triglycerides. The cells were washed with phosphate buffer (PBS), fixed with 4% paraformaldehyde and stained during thirty minutes with Oil Red O. Isopropanol was used to remove the dye from the cells to quantify the accumulation of lipids; the absorbance thereof was measured at 510 nm in a spectrophotometer.

[2] = test system: rabbit subcutaneous fat preadipocytes; assay: Proliferation of subcutaneous fat preadipocytes, crystal violet; assay type: cell-based; details: 72 hours
Method: The primary cultures of rabbit preadipocytes were obtained from the inguinal fat of New Zealand rabbits. Once the fat is removed, it is processed by mechanical disaggregation and enzymatic digestion with 0.075% type I collagenase (Gibco BRL, Paisley, Scotland, RU) for 30 minutes at 37°. The mature adipocytes are separated, removed by centrifugation (300×g, 5 min) and the cell sediment is selected. Then, the mononuclear cells with low cell density are isolated by density gradient centrifugation with Ficoll-Paque (Amersham Biosciences, Uppsala, Sweden). Once the low density mononuclear cells are obtained, they are seeded in a 75 cm^2 culture flask and cultured in an incubator at 37° C. with air containing 5% CO2, in an Eagle medium modified by Dulbecco (DMEM) (Gibco) with 10% of bovine fetal serum (Gibco) and 0.1% of antibiotic-antimicotic (Gibco). The culture medium is replaced 24 hours later to remove the cells present in the supernatant, and to select the cells adhered to the culture flask. […]
The rabbit preadipocytes proliferation experiments were carried out in 24-well plates. […] The proliferation of preadipocytes was evaluated 72 hours later, and at that moment the cells were fixed with 1% glutaraldehyde. The cellular proliferation was evaluated using the crystal violet method, by measuring the absorbance at a wave length of 595 nm.

[3] = biological target: T1, fibroblast growth factor-1 (FGF-1) (Homo sapiens, UniProt P05230); assay: Inhibition of fibroblast mitogenesis induced by FGF-1 in quiescent Balb/c 3T3 cultures; assay type: cell-based; details: quiescent cultures of Balb/c 3T3 fibroblasts; potassium salts, 2-acetoxy-5-hydroxybenzenesulfonate as calcium salt
T1 construct: host or cells: added to Balb/c 3T3 fibroblast cultures
T1 sequence (P05230 whole entry, species assumed): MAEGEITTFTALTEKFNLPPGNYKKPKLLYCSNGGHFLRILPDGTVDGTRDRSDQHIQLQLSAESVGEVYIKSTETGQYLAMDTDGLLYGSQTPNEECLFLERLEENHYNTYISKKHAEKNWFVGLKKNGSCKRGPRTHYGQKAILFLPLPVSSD
Method: The evaluated compounds were used in the form of potassium salt, except in the first case in which calcium salt was used. The experiments were carried out as described in Fernández-Tornero C et al. J Biol Chem, 2003.

[4] = biological target: T1, fibroblast growth factor-1 (FGF-1); assay: Structural interaction with FGF-1 from diffraction of complex crystals; assay type: binding; details: electron density contoured at 1σ; acetoxyl groups kept when bound
Method: As of the diffraction from complex crystals of FGF-1: 2-acetoxy-5-hydroxybenzenesulfonic acid, FGF-1: 5-acetoxy-2-hydroxybenzenesulfonic acid and FGF-1: 2,5-diacetoxybenzenesulfonic acid, the complex structures were calculated and represented. In FIGS. 20, 21 and 22, representing the surface of the protein cloured according to its electrostatic potential (light grey: negative charge, dark grey: positive charge, white: areas with no charge), the interaction form of the 2-acetoxy-5-hydroxybenzenesulfonic acid, 5-acetoxy-2-hydroxybenzenesulfonic acid and 2,5-diacetoxybenzenesulfonic acid, respectively, with the FGF-1 may be observed.

mouse glioma C6 cells = assay: Proliferation of glioma C6 cells, crystal violet; assay type: cell-based; details: 500 μM, 48 hours, potassium salts, p<0.001
Method: The cell line used was that of mouse glioma C6 cells. Once attached, the cells were treated o not treated (controls) with (5A-2HBS) (500 μM) or (2A-5HBS) (500 μM) and they were allowed to proliferate during 48 hours. After that, the proliferation of glioma cells was evaluated by staining the fixed cells with crystal violet. The number of cells is proportional to the amount of retained dye, which was spectrophotometrically determined by measuring absorbance at 595 nm after removing the dye from the cells.

seborrheic keratosis = assay: Topical treatment of seborrheic keratosis; assay type: in vivo, human
Description: (§1) Topical treatment with the above described cream (twice a day for 11 days) of human skin (basal conditions shown in FIG. 2A) results in a reduction of seborrheic keratosis (big circle) as well as of viral warts (small circle), as shown in FIG. 2B.
Another example of the effect of 2,5-dihydroxybenzenesulfonate on seborrheic keratosis is shown in FIG. 3, wherein the seborrheic keratosis is reduced due to the topical treatment on the affected area for 4 weeks, twice a day, with an emulsion containing the 2,5-dihydroxybenzenesulfonic acid, 2.5% by weight.

viral warts = assay: Topical treatment of viral warts; assay type: in vivo, human; details: 5% cream, twice a day for 11 days
Description: as §1

human photoaged skin = assay: Topical treatment of human photoaged skin with cream; assay type: in vivo; details: 5% cream, potassium salt, twice a day for 3 months
Description: (§2) In this study, 2,5-dihydroxybenzenesulfonic acid, potassium salt, formulated as 5% by weight in the form of cream has been used, since this type of formulation is a habitual procedure for topical treatments of the skin. Distilled water has been used as the aqueous phase of the cream. The oil phase thereof may comprise cetyl alcohol, stearyl alcohol or vaseline. Span (sorbitan monooleate) is an effective emulsifier to make the cream.
Active principle: 2,5-dihydroxybenzenesulfonic acid, potassium salt, 5% by weight. Excipients: cetyl alcohol (2.5%), stearyl alcohol (2.5%), liquid vaseline (30%), white soft vaseline (20%), sorbitan monooleate (5%) and distilled water (q.s. to 100 g).
Lightening of skin hyperpigmentation after the application of 2,5-dihydroxybenzenesulfonic acid may justify the use thereof to treat melanic dyschromia with hyperpigmentation as occurs, among other pathologies, in the Mongolian spot, the nevus of Ota, the nevus of Ito, the nevus of Becker, ephelides (freckles), the lentigo malign melanoma, the café-au-lait macules or the melasma (chloasma).

hair growth = assay: Effect of topical cream on hair growth; assay type: in vivo, human; details: 5% cream, potassium salt, twice a day for 3 months
Description: 2,5-dihydroxybenzenesulfonic acid, potassium salt, formulated in the form of cream was used and its composition was the same as that used in example 1.

actinic keratosis = assay: Topical treatment of actinic keratosis lesions in patients; assay type: in vivo, human; details: for actinic keratosis: 2.5% by weight emulsion, twice a day, two lesions in the same patient (scalp)
Description: An emulsion containing 2.5% by weight of 2,5-dihydroxybenzenesulfonic acid was used to treat two lesions of actinic keratosis in the same patient, as shown in FIGS. 4 and 5. […] Calcium salt of 2,5-dihydroxybenzenesulfonic acid was used.
as §2
Active principle: 2,5-dihydroxybenzenesulfonic acid, potassium salt, 5% by weight.
Excipients: cetyl alcohol (2.5%), stearyl alcohol (2.5%), liquid vaseline (30%), white soft vaseline (20%), sorbitan monooleate (5%) and distilled water (q.s. to 100 g).

Compound: O=C(O)c1cc(O)ccc1O [gentisic acid, 2,5-dihydroxybenzoic acid]
- accumulation of triglycerides (percentage of absorbance at 510 nm) versus untreated cells ([1]; 50 μM, p<0.05): significantly smaller
- differentiation of the preadipocytes and adipogenesis ([1]; 3T3-L1 preadipocytes, 50 μM, two weeks): inhibits the differentiation of the preadipocytes and the adipogenesis

Compound: CC(=O)Oc1ccc(O)cc1S(=O)(=O)O [2A-5HBS, 2-acetoxy-5-hydroxybenzenesulfonic acid]
- concentration as of which a significant effect on preadipocyte proliferation is obtained [2]: 100 µM
- proliferation of preadipocytes (absorbance at 595 nm) ([2]; DHBS 10 to 100 μM, 2A-5HBS 10 to 500 μM, concentration dependent): significantly inhibited
- FGF-1 induced mitogenesis [3]: Inhibition of FGF-1 mitogenesis was observed
- location of the compound bound to FGF-1 in the complex crystal [4]: located at a site very close to the site that, as described, is occupied by the 2,5-dihydroxybenzenesulfonic acid
- proliferation of glioma cells (absorbance at 595 nm) (mouse glioma C6 cells): caused the inhibition of the proliferation

Compound: O=S(=O)([O-])c1cc(O)ccc1O.[K+] [potassium 2,5-dihydroxybenzenesulfonate]
- FGF-1 induced mitogenesis [3]: Inhibition of the mitogenesis

Compound: CC(=O)Oc1ccc(OC(C)=O)c(S(=O)(=O)[O-])c1.[K+] [DABS, potassium 2,5-diacetoxybenzene sulfonate]
- FGF-1 induced mitogenesis [3]: Inhibition of FGF-1 mitogenesis was observed
- location of the compound bound to FGF-1 in the complex crystal [4]: located at a site very close to the site that, as described, is occupied by the 2,5-dihydroxybenzenesulfonic acid

Compound: O=S(=O)(O)c1cc(O)ccc1O [2,5-dihydroxybenzenesulfonic acid]
- seborrheic keratosis (seborrheic keratosis; 2.5% by weight emulsion, twice a day for 4 weeks, facial): reduced
- seborrheic keratosis (seborrheic keratosis; 5% cream, twice a day for 11 days): reduction in the seborrheic keratosis
- viral warts (viral warts): reduction
- number of preadipocytes differentiated in adipocytes ([1]; 3T3-L1 cells, 25 μM, during 12 hours (so in the source)): very significant reduction
- actinic lentigo areas of photoaged skin (human photoaged skin): disappearance of actinic lentigo areas
- wrinkles of photoaged skin (human photoaged skin): reduction of the wrinkles
- hair in the area of application (hair growth): disappearance of hair in the area of application
- actinic keratosis lesion in the ear (actinic keratosis; 5% cream, topical, after 12 days): reduction of the actinic keratosis
- actinic keratosis lesion in the ear (actinic keratosis; 5% cream, topical, after 15 days): the lesion was cleared
- actinic keratosis lesion in the nose (actinic keratosis; 5% cream, topical, after 30 days): reduction of the actinic keratosis

Compound: CC(=O)Oc1ccc(O)c(S(=O)(=O)[O-])c1.[K+] [5A-2HBS, potassium 5-acetoxy-2-hydroxybenzenesulfonate]
- FGF-1 induced mitogenesis [3]: Inhibition of FGF-1 mitogenesis was observed
- location of the compound bound to FGF-1 in the complex crystal [4]: located at a site very close to the site that, as described, is occupied by the 2,5-dihydroxybenzenesulfonic acid
- proliferation of glioma cells (absorbance at 595 nm) (mouse glioma C6 cells): caused the inhibition of the proliferation

Compound: calcium 2,5-dihydroxybenzenesulfonate
- actinic keratosis (actinic keratosis; after 4 weeks): the effect was even more evident
- actinic keratosis (actinic keratosis; after 15 days): clearly reduced
